Active and inactive are the calls of the source.
Columns and labels:
Beta-galactosidase = Beta-galactosidase (Escherichia coli, UniProt Q8VNN2); assay: PubChem AID 485352; type: functional
[1] = target: T1, Heat shock factor protein 1 (Mus musculus, UniProt P38532); assay: enhancement of HSF1-driven luciferase signal – cell-based, NIH3T3, luminescence, dose retest, confirmation (AID 435004); type: functional;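 note: stress induced by proteasome inhibitor MG132 added 30 min after compound; luciferase reporter driven by HSF1 response element in NIH3T3 cells; actives raise luminescence as potentiators of the MG132 stress response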
T1 sequence (P38532 whole entry): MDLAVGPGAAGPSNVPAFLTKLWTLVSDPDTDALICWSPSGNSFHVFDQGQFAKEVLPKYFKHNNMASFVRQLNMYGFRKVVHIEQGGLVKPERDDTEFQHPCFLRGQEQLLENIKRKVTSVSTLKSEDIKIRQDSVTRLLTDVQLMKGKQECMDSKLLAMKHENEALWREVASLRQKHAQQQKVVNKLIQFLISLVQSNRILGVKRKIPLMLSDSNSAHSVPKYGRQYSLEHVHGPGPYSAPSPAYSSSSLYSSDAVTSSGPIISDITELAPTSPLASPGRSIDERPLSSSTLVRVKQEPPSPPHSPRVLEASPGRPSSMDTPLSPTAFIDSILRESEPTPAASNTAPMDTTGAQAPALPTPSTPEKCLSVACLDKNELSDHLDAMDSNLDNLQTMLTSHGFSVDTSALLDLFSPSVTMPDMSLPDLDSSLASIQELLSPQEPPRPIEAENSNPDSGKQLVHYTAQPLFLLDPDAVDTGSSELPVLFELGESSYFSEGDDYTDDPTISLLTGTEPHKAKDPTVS

[2] = target: T2, Type-1 angiotensin II receptor (Homo sapiens, UniProt P30556); assay: antagonism of angiotensin II type 1 receptor – cell-based, uHTS hits, selectivity assay for APJ receptor antagonist project, dose response (AID 463214); type: functional;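 note: antagonist potency against angiotensin II stimulated AT1 response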
T2 sequence (P30556 whole entry): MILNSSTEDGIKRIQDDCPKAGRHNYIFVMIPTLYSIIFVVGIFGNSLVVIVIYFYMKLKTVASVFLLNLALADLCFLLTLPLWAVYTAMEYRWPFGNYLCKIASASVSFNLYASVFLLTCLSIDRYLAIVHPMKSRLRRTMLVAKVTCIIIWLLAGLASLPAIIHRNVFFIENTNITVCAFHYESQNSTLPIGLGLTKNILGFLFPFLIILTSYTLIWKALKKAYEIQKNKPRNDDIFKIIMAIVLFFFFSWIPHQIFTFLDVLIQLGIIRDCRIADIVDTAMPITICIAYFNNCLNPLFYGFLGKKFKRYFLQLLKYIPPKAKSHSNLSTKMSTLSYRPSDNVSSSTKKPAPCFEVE

SUMO-activating enzyme [3] = target: T3, SUMO-activating enzyme (Homo sapiens, UniProt Q9UBT2); assay: blockers of UBC9-mediated SUMO conjugation – biochemical, AlphaScreen, SUMOylation inhibitor project, confirmation (AID 2018); type: functional
SUMO-activating enzyme [4] = target: T3, SUMO-activating enzyme; assay: blockers of SAE1/SAE2–UBC9 SUMO transfer – biochemical, HTRF, uHTS, primary screen (AID 2006); type: protein-complex assay
Vero = assay: viability of Vero cells under compound – cytotoxicity control for flavivirus capping enzyme inhibitors (AID 588742); type: functional; conditions: Chlorocebus sabaeus
Large T antigen = Large T antigen (Simian virus 40, UniProt P03070); type: functional, Betapolyomavirus macacae;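 note: Confirmatory-stage PubChem screen for compounds that inhibit SV40 T antigen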
[5] = target: T4, E3 ubiquitin-protein ligase XIAP (Homo sapiens, UniProt P98170); assay: Counter Screen using XIAP-Bir3 for Chemical Antagonists of Bir1/2 domains of IAP-family anti-apoptotic proteins. [Related pubchem assays (depositor defined):AID1018, AID1449, AID1514, AID1638, AID1749, AID1750, AID488957, AID488963]
[6] = target: T5, Corticotropin-releasing factor receptor 2/Corticotropin-releasing factor-binding protein (Homo sapiens, UniProt P24387+Q13324); assay: Dose Response confirmation of uHTS hits for small molecule antagonists of the CRF-binding protein and CRF-R2 receptor complex.; type: functional; conditions: read-out: IC50_Mean
T5 sequence (Q13324 whole entry): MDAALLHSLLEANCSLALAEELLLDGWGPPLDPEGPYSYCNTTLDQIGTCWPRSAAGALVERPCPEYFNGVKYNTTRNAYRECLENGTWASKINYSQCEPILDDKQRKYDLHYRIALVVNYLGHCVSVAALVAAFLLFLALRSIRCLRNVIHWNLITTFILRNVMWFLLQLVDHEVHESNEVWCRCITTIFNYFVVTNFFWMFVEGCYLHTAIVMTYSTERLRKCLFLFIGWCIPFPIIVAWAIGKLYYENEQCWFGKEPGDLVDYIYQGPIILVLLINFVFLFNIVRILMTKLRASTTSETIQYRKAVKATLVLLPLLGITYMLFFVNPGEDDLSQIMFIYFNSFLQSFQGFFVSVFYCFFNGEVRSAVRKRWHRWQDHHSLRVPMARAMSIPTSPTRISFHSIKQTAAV
T5 sequence (P24387 whole entry): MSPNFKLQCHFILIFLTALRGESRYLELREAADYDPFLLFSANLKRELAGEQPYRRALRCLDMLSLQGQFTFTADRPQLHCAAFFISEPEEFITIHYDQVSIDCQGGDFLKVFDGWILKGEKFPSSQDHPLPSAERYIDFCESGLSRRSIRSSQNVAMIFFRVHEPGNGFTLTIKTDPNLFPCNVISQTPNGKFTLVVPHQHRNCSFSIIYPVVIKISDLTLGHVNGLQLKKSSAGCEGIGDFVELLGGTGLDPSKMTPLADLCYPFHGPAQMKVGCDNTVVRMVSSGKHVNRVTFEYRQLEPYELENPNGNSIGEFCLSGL

[7] = target: T6, Short transient receptor potential channel 4 (Mus musculus, UniProt Q9QUQ5); assay: block of DAMGO-driven TRPC4 calcium entry – cell-based, HEK293 TRPC4/mu-opioid, Fluo-4 calcium, dose response (AID 434942); type: functional;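 note: potency of inhibitors blocking the TRPC4 calcium response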
T6 sequence (Q9QUQ5 whole entry): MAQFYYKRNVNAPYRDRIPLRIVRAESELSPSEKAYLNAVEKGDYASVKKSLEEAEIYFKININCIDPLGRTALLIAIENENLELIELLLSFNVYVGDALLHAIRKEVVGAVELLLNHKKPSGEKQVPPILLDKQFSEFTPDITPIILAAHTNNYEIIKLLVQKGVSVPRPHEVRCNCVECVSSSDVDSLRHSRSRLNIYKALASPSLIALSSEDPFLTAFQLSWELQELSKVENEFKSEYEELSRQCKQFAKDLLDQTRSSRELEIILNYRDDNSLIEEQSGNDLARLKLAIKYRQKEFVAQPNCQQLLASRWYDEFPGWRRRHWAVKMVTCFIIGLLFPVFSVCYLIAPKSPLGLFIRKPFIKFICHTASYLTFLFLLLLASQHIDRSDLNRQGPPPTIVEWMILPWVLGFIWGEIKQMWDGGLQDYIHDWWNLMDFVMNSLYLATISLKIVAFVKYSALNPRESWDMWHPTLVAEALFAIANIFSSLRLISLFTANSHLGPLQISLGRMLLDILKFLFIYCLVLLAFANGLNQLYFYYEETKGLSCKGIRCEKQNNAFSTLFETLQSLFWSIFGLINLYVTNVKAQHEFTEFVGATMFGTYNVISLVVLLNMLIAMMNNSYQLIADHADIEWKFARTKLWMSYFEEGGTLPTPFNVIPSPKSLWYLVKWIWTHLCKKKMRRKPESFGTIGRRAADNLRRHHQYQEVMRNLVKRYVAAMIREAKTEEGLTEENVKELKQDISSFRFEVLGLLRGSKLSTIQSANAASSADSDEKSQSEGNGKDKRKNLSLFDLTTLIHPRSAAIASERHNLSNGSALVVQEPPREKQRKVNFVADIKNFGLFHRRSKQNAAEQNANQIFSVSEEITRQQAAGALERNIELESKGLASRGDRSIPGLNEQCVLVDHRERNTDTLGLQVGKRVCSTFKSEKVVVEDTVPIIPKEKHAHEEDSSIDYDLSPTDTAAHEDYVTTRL

[8] = target: T4, E3 ubiquitin-protein ligase XIAP; assay: small molecules displacing peptide from XIAP – biochemical, IAP family, fluorescence polarization (AID 1018); type: functional
[9] = target: T5, Corticotropin-releasing factor receptor 2/Corticotropin-releasing factor-binding protein; assay: activators of CRF receptor 2 with binding protein – uHTS hits, confirmation (AID 602473); type: functional; conditions: read-out: EC50_Mean
Genome polyprotein = Genome polyprotein (dengue virus type 2, UniProt P29990); assay: flavivirus cap methylation enzyme inhibition – biochemical, confirmation dose response, primary screen (AID 588689); type: functional
[10] = target: Beta-2 adrenergic receptor (Homo sapiens, UniProt P07550); assay: ADRB2 activation measured by internalization – cell-based, FAP fluorogen, flow cytometry, cherry pick 1, dose response (AID 588763); type: functional
[11] = target: T7, Lysosomal acid glucosylceramidase (Homo sapiens, UniProt P04062); assay: Dose response cell-based high throughput screening assay to identify enhancers of beta-glucosidase activity. [Related pubchem assays: 784 ]; type: functional
T7 sequence (P04062 whole entry): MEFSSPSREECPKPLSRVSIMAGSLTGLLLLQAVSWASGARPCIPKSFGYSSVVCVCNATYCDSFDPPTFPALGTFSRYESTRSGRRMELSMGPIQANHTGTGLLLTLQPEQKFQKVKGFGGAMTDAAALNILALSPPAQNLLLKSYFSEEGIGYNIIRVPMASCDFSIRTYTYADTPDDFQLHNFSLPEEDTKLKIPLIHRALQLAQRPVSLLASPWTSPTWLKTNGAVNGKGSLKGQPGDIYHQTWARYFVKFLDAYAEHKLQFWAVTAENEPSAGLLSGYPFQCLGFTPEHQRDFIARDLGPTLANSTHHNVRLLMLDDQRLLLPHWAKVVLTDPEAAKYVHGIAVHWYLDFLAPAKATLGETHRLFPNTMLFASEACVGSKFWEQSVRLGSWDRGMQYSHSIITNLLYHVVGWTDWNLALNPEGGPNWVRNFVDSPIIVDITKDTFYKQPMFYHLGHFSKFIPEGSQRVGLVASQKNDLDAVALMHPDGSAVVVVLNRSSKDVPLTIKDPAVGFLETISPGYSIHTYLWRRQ

[12] = target: T8, Long-chain-fatty-acid--AMP ligase FadD28 (Mycobacterium tuberculosis, UniProt P9WQ59); assay: Fluorescence polarization aasay to screen for inhibitors that compete for the binding of FadD28 to a bisubstrate Measured in Biochemical System Using Plate Reader - 2147-01_Inhibitor_Dose_CherryPick_Activity.; type: functional, Mycobacterium tuberculosis H37Rv
T8 sequence (P9WQ59 whole entry): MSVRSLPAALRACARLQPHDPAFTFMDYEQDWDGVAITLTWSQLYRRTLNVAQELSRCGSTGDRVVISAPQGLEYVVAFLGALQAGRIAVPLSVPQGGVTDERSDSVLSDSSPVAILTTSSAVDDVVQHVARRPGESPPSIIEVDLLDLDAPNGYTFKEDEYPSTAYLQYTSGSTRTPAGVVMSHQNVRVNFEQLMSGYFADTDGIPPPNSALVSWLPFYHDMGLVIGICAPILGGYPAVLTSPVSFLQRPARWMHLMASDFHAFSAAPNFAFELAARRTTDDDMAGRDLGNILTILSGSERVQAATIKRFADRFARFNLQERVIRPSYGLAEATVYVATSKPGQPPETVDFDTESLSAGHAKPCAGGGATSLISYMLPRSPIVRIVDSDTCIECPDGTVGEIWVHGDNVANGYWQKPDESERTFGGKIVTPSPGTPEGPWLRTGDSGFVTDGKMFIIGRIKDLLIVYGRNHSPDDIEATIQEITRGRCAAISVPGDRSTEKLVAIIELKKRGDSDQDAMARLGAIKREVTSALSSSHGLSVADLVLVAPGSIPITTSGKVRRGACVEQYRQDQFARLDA

[13] = target: Glucose-6-phosphate 1-dehydrogenase (Homo sapiens, UniProt P11413); assay: inhibition of Homo sapiens G6PD, dose series – biochemical, fluorescence, selectivity assay for P. falciparum G6PD inhibitor project, dose response (AID 504792); type: functional
Chain of Glucose-6-phosphate 1-dehydrogenase (P11413 whole entry): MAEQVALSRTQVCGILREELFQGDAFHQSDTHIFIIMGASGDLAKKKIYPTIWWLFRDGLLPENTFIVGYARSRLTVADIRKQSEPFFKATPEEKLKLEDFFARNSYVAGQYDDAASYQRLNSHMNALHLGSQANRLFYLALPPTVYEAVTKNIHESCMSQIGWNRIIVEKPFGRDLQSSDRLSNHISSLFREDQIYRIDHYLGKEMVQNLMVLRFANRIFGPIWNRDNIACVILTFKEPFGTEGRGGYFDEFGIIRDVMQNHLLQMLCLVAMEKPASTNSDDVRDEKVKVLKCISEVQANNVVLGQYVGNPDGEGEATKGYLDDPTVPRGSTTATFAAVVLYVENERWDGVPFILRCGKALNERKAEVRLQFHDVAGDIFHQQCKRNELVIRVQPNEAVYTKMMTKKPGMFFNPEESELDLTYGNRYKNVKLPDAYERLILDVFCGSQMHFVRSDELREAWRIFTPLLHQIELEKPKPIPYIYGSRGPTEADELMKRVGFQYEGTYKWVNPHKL

Chain of Beta-galactosidase (Q8VNN2 whole entry): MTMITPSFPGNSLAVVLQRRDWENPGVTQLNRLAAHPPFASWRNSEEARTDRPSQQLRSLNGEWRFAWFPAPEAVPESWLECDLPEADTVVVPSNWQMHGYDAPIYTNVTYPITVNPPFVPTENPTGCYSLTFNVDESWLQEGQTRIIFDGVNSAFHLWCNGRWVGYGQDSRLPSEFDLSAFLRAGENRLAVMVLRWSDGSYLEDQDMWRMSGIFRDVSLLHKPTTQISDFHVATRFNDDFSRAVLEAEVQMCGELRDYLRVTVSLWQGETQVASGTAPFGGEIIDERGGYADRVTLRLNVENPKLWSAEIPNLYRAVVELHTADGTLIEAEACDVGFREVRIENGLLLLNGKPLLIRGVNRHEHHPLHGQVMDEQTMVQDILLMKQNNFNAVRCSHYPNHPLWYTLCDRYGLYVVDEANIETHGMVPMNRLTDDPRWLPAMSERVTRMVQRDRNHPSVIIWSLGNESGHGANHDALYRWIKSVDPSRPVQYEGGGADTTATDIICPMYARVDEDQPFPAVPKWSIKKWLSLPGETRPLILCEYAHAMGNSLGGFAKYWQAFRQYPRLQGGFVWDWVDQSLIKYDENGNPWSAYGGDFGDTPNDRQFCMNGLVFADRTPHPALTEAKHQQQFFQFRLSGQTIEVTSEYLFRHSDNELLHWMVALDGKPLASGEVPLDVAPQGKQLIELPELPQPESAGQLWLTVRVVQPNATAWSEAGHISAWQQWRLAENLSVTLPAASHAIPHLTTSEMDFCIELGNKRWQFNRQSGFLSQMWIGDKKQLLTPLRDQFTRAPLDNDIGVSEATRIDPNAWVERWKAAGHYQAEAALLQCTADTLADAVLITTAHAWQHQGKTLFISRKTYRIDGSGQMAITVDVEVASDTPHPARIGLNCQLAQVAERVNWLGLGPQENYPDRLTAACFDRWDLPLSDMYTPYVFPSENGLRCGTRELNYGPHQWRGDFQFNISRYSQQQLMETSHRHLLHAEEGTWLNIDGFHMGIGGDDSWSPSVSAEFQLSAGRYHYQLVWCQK
T3 sequence (Q9UBE0 whole entry): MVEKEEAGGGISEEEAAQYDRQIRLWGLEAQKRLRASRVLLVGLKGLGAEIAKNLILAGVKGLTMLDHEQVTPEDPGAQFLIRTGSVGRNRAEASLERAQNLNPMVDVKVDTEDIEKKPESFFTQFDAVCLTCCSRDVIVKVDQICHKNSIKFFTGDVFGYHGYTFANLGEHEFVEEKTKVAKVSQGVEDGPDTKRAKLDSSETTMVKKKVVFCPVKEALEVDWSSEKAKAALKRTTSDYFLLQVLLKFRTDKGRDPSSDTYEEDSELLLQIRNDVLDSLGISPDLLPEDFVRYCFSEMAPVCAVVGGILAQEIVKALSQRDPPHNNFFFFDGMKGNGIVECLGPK
T3 sequence (Q9UBT2 whole entry): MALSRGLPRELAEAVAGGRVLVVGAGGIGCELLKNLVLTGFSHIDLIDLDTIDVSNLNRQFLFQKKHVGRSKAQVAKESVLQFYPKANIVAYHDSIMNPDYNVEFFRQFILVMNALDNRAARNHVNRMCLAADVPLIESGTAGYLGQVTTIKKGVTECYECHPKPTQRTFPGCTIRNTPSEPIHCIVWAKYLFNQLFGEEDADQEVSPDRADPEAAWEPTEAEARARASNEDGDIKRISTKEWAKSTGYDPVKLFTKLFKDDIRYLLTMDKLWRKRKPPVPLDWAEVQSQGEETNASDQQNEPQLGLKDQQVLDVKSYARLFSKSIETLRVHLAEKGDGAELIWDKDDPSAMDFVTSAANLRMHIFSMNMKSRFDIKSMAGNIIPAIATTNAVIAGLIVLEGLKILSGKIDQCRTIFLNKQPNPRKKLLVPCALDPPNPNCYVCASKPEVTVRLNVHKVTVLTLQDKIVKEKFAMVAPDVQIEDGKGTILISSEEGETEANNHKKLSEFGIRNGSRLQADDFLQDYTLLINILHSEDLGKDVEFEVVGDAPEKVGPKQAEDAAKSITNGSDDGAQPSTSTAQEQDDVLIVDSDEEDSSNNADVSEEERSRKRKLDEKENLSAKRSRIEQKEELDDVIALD
T4 sequence (P98170 whole entry): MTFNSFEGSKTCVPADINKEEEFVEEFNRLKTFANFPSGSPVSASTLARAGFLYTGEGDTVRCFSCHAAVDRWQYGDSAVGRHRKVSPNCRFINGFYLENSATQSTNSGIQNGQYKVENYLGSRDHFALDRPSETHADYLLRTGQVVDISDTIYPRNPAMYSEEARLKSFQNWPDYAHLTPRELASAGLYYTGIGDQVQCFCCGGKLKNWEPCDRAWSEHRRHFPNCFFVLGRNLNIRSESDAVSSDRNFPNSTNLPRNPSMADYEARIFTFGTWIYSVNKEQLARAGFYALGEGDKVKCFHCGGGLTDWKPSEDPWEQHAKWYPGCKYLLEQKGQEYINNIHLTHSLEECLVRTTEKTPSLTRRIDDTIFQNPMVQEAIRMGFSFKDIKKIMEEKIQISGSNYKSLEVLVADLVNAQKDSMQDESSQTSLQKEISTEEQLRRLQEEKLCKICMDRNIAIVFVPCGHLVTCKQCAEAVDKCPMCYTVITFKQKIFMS
Chain of Genome polyprotein (P29990 2492-3391 limits assumed): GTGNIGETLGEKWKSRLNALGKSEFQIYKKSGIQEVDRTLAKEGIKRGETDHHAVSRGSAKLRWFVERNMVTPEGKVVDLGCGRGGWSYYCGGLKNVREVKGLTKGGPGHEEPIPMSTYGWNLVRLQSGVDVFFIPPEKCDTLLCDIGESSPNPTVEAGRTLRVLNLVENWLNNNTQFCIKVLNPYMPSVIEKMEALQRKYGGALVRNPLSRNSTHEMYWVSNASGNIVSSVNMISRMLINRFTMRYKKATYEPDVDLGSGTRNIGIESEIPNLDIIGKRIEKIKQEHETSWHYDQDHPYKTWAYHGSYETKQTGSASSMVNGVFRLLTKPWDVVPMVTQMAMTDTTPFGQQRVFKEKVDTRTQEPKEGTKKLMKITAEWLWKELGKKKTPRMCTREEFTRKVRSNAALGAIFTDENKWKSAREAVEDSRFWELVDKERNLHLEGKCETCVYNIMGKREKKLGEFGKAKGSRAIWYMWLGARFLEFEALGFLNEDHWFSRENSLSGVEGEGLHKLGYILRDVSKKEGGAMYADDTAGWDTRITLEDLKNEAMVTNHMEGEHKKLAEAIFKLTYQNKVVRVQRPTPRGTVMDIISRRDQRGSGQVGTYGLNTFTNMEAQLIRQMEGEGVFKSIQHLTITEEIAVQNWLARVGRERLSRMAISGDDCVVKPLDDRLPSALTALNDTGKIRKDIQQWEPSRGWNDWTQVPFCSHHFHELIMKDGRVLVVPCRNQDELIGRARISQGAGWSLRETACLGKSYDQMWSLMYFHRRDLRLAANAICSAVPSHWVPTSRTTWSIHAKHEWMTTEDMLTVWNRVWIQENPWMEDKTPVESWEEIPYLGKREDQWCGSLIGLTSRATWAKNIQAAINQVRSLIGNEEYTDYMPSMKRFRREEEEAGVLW
Chain of Beta-2 adrenergic receptor (P07550 whole entry): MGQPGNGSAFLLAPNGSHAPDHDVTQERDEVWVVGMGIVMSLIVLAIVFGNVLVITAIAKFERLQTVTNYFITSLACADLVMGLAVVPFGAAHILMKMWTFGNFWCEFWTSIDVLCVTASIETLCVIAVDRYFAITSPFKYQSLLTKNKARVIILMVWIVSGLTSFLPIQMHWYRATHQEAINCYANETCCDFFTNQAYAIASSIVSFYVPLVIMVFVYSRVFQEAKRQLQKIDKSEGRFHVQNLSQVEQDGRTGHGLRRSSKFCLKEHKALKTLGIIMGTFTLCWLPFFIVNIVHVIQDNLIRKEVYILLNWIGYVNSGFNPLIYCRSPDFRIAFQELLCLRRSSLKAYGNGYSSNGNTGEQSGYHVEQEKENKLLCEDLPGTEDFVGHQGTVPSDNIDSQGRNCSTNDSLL
Chain of Large T antigen (P03070 whole entry): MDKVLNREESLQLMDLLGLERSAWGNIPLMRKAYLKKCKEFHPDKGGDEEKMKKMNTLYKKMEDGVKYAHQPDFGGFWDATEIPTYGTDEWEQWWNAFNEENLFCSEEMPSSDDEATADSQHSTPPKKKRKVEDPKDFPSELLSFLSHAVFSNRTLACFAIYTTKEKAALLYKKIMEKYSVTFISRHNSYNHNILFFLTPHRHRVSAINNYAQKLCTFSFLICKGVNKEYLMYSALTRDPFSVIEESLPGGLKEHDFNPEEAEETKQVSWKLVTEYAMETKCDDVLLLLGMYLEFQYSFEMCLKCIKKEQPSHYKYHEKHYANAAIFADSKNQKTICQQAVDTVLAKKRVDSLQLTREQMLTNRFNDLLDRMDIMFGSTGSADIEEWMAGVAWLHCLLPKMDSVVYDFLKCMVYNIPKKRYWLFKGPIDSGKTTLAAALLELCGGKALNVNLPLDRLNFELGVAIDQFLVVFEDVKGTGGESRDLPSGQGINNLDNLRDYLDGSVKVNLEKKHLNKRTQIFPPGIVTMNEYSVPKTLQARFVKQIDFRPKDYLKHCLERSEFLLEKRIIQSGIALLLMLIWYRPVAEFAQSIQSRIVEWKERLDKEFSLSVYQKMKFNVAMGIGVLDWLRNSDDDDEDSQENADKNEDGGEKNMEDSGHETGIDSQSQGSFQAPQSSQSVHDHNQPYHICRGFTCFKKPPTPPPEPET

Compound: CC(=O)c1ccc(NC2=c3ccccc3=NC2=O)cc1
- EC50 (Beta-galactosidase): > 40 µM (inactive)
- EC50 [1]: > 260 µM (inactive)
- IC50 [2]: 3.1 µM (active)

Compound: CCc1ccc(C(=O)NNc2ccc(Cl)cc2)cc1
- EC50 (Beta-galactosidase): > 40 µM (inactive)
- IC50 [2]: 6.08 µM (active)

Compound: CCc1ccc(NC(=O)NNC(=O)c2cc3ccccc3cc2O)cc1
- IC50 (SUMO-activating enzyme [3]): 37.2 µM (active)
- IC50 (SUMO-activating enzyme [4]): 11.6 µM (active)

Compound: O=C(O)CN1C(=O)/C(=C\C(Br)=C\c2ccccc2)SC1=S
- CC50 (Vero): > 40 µM (active)
- IC50 (Large T antigen): 53.4 µM (active)

Compound: O=C(O)CN1C(c2ccccc2O)Nc2ccc(Br)cc2C1c1ccccc1 (centres undefined)
- IC50 [5]: > 100 µM (inactive)
- IC50 [6]: 28.6 µM (active)
- EC50 [7]: 5.31 µM (active)
- IC50 [8]: > 100 µM (not active)
- EC50 [9]: > 53 µM (inactive)

Compound: O=S(=O)(Nc1nc2ccccc2nc1NCc1ccco1)c1ccc(Cl)cc1
- CC50 (Vero): > 40 µM (active)
- IC50 (Genome polyprotein): 91.9 µM (active)

Compound: NC(=O)CC(NC(=O)Cc1cccc2ccccc12)c1ccc(NCCCN2CCCC2=O)c([N+](=O)[O-])c1 (centres undefined)
- EC50 [10]: 801 nM (active)

Compound: CC1CCCCN1C(=O)CSc1nc2cc3c(cc2c(=O)n1Cc1ccc2c(c1)OCO2)OCO3 (centres undefined)
- EC50 [11]: > 50 µM (not active)
- EC50 (Beta-galactosidase): > 40 µM (inactive)
- IC50 [2]: > 40 µM (not active)

Compound: CCCCCCCCSC1=CC(=O)C(OC)=C(OC)C1=O
- CC50 (Vero): > 40 µM (active)
- AC50 [12]: 30.9 µM (active)
- IC50 [13]: 48.1 µM (inactive)
- IC50 (Genome polyprotein): 12.5 µM (active)

Source: ChEMBL document CHEMBL1201862, “PubChem BioAssay data set” (2004)
